For data set [1], the system named is RFP-LL/2 cells through CD31+ endothelial cell monolayer. The experiment in a line: Transendothelial migration assay. To be noted: 2 h pretreatment, 20 h. Type of data set: cell-based, mouse. As to the method: (§1) Studies have shown that RIPK1 kinase activity is involved in the promotion of tumor metastasis through death receptor 6-dependent necroptosis of endothelial cells[22] or VEGF-dependent activation of vascular permeability. We thus evaluated the therapeutic effect of PK68 on lung metastasis of mouse melanoma B16-F10 cells in vivo. […] After 2 weeks, the metastasis of B16-F10 cells was measured by histological analysis and assessed as the number of metastasis nodules in the lung. […] Two weeks after intravenous injection of RFP-LL/2 cells, RFP^+ LL/2 cells were isolated from the tumor tissues by flow cytometer sorting and no signal of phosphorylated RIPK1 was detected in these tumors cells (Supplementary Fig. 22). Six hours after intravenous injection of RFP-LL/2 cells into C57BL/6 mice, the RFP-LL/2 cells have extravasated through blood vessels into the lung (Supplementary Fig. 23). […] Further, we evaluated the effect of PK68 on the tumor cell transmigration across the cultured endothelium. […]
Primary CD31^+ endothelial cells isolated from lungs by using CD31 beads (Miltenyi Biotec) were used for the transendothelial migration assay as previously described. […] Then fluorescence picture of transmigrated RFP-LL/2 cells were taken at ×40 magnification under the microscope (Nikon), and the intensity of fluorescence was analyzed by Image J software. […]

For data set [2], the system named is RFP-LL/2 cells. The experiment in a line: Lung metastasis model of RFP-labeled Lewis lung carcinoma cells. The data set is classed as in vivo, C57BL/6 mice. To be noted: 5 mg/kg ip pre-treatment; 14 days. As to the method:
as §1, with “22).” for “22). Six hours after intravenous injection of RFP-LL/2 cells into C57BL/6 mice, the RFP-LL/2 cells have extravasated through blood vessels into the lung (Supplementary Fig. 23).”
(§2) C57BL/6 mice bearing B16-F10 cells (a, b) or RFP-labeled LL/2 cells (c, d) were treated with vehicle, PK68 (5 mg/kg) or Nec-1s (5 mg/kg) as described in the Materials and methods. a, b Tumor metastasis of B16-F10 was measured by the numbers of metastasis nodules and histological analysis. […] The numbers of metastasis nodules on lung surfaces (b) in the metastasis model of B16-F10 were counted with the microscope. c, d Tumor metastasis of RFP-labeled LL/2 was calculated by RFP […] intensity. […]

Data set [3] can be described thus: 14-day preliminary toxicity, daily oral gavage. Type of data set: in vivo, C57BL/6 mice. As to the method:
Data represent mean value ± standard deviation. b Plasma pharmacokinetic parameters of PO and IV. c, d C57BL/6 mice (n = 5) were treated with the indicated daily oral gavage dosing of PK68 for successive 14 days. Body weight (c) and hematoxylin-eosin (H&E) staining (d) of mice were analyzed. Control mice received an equal amount of vehicle. Magnification: ×40. Data represent mean value ± standard deviation TEXT PRINTED IN THE PICTURE: (b) no label printed: Tmax (hr): 0.5 (PO (Gavage)); Cmax (ng/mL): 2423 (PO (Gavage)); AUC0-24 (ng/mL*hr): 4821 (PO (Gavage)); AUC0-24 (ng/mL*hr): 1588 (IV (Bolus)); AUCINF (ng/mL*hr): 4897 (PO (Gavage)); AUCINF (ng/mL*hr): 1590 (IV (Bolus)); t1/2 (hr): 1.3 (PO (Gavage)); t1/2 (hr): 1.0 (IV (Bolus)); MRT (hr): 1.8 (PO (Gavage)); MRT (hr): 0.8 (IV (Bolus)); CL (mL/hr/kg): 1258 (IV (Bolus)); CL (mL/min/kg): 21 (IV (Bolus)); Vss (mL/kg): 1009 (IV (Bolus)); Vss (L/kg): 1.0 (IV (Bolus)); F(%): 61 (PO (Gavage)) DOUBTS OF THE COPYIST ABOUT THIS PICTURE: Panel b prints no substance label with the PK table. The name PK68 is printed only in panels c and d, so the label is left empty.
Judging by the PK time curve, the observed plasma levels of PK68 were above its EC50 over a period of 8 h. […] These doses were meant to determine the preliminary toxicity effects of PK68 (Fig. 6c). […] We further performed histology of various tissues from mice that had received 14-day treatment of PK68.

The test system of data set [4] is B16-F10 cells. Put plainly: Lung metastasis model of melanoma cells. The data set is classed as in vivo, C57BL/6 mice. To be noted: 5 mg/kg ip pre-treatment; 14 days. As to the method: as §1, with “22).” for “22). Six hours after intravenous injection of RFP-LL/2 cells into C57BL/6 mice, the RFP-LL/2 cells have extravasated through blood vessels into the lung (Supplementary Fig. 23).”
as §2

The test system of data set [5] is mouse embryonic fibroblasts (MEFs). The experiment in a line: TNF-induced necroptosis (T/S/Z), cell viability by ATP levels. Type of data set: cell-based. To be noted: Fibroblast, 24 h, MEF, T/S/Z 24 h.
Data set [6] relates to U937 cells. The data set is described as above. The data set is classed as cell-based. To be noted: Homo sapiens, U-937, 24 h, T/S/Z 24 h.
Where [7] appears, read: 5 and 25 mg/kg, daily oral gavage, 14 days.

Structures are written as SMILES. Entries after “also recorded” stand apart in the source; their conditions may differ.

The record followed here is publication PMC6591251, “Discovery of potent necroptosis inhibitors targeting RIPK1 kinase activity for the treatment of inflammatory disorder and cancer metastasis” (Cell Death & Disease, 2019).

Turning to `CC(=O)Nc1nc2ccc(-c3cnc(C)c(NC(=O)OC4CCCCC4)c3)cc2s1` [PK68, cyclohexyl (5-(2-acetamidobenzo[d]thiazol-6-yl)-2-methylpyridin-3-yl)carbamate], the “transmigration of RFP-LL/2 cells through the endothelial cell monolayer” value in data set [1] is reported as “attenuated”. For the same molecule, in data set [2], the “lung metastasis of RFP-LL/2 cells” value is “markedly decreased”. Moreover, in data set [3] (setting [7]), the “body weight and behavior” value was “normal body weight and behavior”; the tolerability entry is “well tolerated”. Besides, the toxicity in mice entry in data set [3] (14-day course, 25 mg/kg) is given as “no obvious toxicity; also recorded: no detectable toxicity”. Also, the “histology of lung, liver, and heart” value in data set [3] (14-day treatment) was “normal morphology”. Moreover, the “number of pulmonary metastasis nodules” value in data set [4] is recorded as “significantly reduced”.
Broadly, the EC50 is the concentration that produces a half-maximal response. Consider `CC(=O)Nc1nc2ccc(-c3cnc(Cl)c(NC(=O)Cc4ccccc4)c3)cc2s1` [PK6, N-(5-(2-acetamidobenzo[d]thiazol-6-yl)-2-chloropyridin-3-yl)-2-phenylacetamide], for which the EC50 in data set [5] is about 950 nM; in data set [6], about 1330 nM.
